Results published in US7285557B2, “Pyrimidinones as melanin concentrating hormone receptor 1” (SmithKline Beecham P.L.C., priority 2001, dated 2007).

Biological target: T1, human melanin-concentrating hormone one receptor (Homo sapiens, UniProt Q99705)
T1 construct: expressed in transfected cells; host or cells: CHO (CHO-K1) cells stably expressing an elkgal4-luc+ reporter gene
Assay: Functional antagonist assay of MCHR1 (elkgal4-luc+ luciferase reporter gene in CHO cells, inhibition of MCH EC80 response)
Format: cell-based
Conditions: MCH1R-elkgal4-luc+ CHO cells, luciferase readout, read-out: MCHR1 pIC50 (converted)
Procedure: Chinese hamster ovary (CHO-K1) cells were obtained from the American Type Culture Collection (Rockville, Md.).
CHO cells, stably expressing an elkgal4-luc^+ reporter gene (host) were transfected by electroporation with the human melanin-concentrating hormone one receptor. A stable clone was selected using G418 for functional antagonist assays. MCH1R-elkgal4-luc^+ CHO cells were propagated in complete medium (DMEM/F12, 5% FBS, 2 mM I-glutamine) in T225 flasks. Forty-eight hours prior to assay, cells were harvested with 2 mL of 0.05% trypsin, washed with complete medium and plated at a concentration of 10,000 cells/well in complete medium in black 96-well plates. Eighteen hours prior to the assay, the medium was removed from the cells by aspiration and replaced with 90 μl/well of serum-free DMEM/F12. […] Plates were sealed and subjected to dark adaptation at room temperature for 10 minutes before luciferase activity was quantitated on a TopCount™ microplate scintillation counter (Packard) using 3 seconds/well count time. The ability of the antagonist to inhibit the MCH EC80 response was quantified by non-linear regression analysis using a curve-fitting program based in Microsoft ExCel. Specificity of the MCHR1 response was determined using the same protocol by measuring the ability of said antagonists to inhibit an EC80 thrombin response (endogenous) in the host cells.

T1 sequence (Q99705 whole entry, the tested form may be a part): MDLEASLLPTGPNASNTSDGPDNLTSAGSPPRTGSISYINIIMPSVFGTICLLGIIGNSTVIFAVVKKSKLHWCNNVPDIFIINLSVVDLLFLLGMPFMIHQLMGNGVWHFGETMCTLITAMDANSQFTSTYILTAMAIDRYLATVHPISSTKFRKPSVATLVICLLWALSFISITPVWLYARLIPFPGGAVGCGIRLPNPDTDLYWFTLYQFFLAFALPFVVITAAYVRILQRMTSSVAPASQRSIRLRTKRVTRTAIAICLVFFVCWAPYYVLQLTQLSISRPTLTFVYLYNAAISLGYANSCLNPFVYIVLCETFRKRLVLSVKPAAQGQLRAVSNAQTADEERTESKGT

Row | IC50 | SMILES
1 | 63.1 nM | COc1cc(-n2cnc3cc(-c4ccc(C(F)(F)F)cc4)ccc3c2=O)ccc1OCCN1CCCC1 [Example J1, 3-{3-methoxy-4-[2-(1-pyrrolidinyl)ethoxy]phenyl}-7-[4-(trifluoromethyl)phenyl]-4(3H)-quinazolinone]
2 | 79.4 nM | COc1cc(-n2cnc3cc(-c4ccccc4)ccc3c2=O)ccc1OCCN1CCCCC1 [Example H1, 3-{3-methoxy-4-[2-(1-piperidinyl)ethoxy]phenyl}-7-phenyl-4(3H)-quinazolinone]
